Reference: patent publication US9518018B2, “3-alkoxy, thioalkyl and amino-4-amino-6-(substituted)picolinates and their use as herbicides” (Dow AgroSciences LLC, priority 2011, dated 2016)

Legend:
Experiment in all cases: In-water applied herbicidal activity in transplanted paddy rice
Assay type in all cases: in vivo
[1] = test system: ECHCG = Echinochloa crus-galli (L.) P.BEAUV. (barnyardgrass)
Protocol: (§1) Weed seeds or nutlets of the desired test plant species were planted in puddled soil (mud) prepared by mixing a non-sterilized mineral soil (28 percent silt, 18 percent clay, and 54 percent sand, with a pH of about 7.3 to 7.8 and an organic matter content of about 1.0 percent) and water at a ratio of 100 kilograms (kg) of soil to 19 liters (L) of water. The prepared mud was dispensed in 250 mL aliquots into 480 mL non-perforated plastic pots with a surface area of 86.59 cm^2 leaving a headspace of 2.5 to 3 cm in each pot. Rice seeds were planted in Sun Gro MetroMix 306 planting mixture, which typically has a pH of 6.0 to 6.8 and an organic matter content of about 30 percent, in plastic plug trays. Seedlings at the second or third leaf stage of growth were transplanted into 650 mL of mud contained in 960 mL non-perforated plastic pots with a surface area of 86.59 cm^2 four days prior to herbicide application. The paddy was created by filling the 2.5 to 3 cm headspace of the pots with water. When required to ensure good germination and healthy plants, a fungicide treatment and/or other chemical or physical treatment was applied. The plants were grown for 4-14 d in a greenhouse with an approximate 14-h photoperiod which was maintained at about 29° C. during the day and 26° C. during the night. Nutrients were added as Osmocote (17:6:10, Nitrogen:Phosphorus:Potassium (N:P:K)+minor nutrients) at 2 grams (g) per cup. Water was added on a regular basis to maintain the paddy flood, and supplemental lighting was provided with overhead metal halide 1000-Watt lamps as necessary. The plants were employed for testing when they reached the second or third true leaf stage. Treatments consisted of compounds 45, 34, and 66. For technical grade compounds, a weighed amount, determined by the highest rate to be tested, was placed in an individual 120 mL glass vial and was dissolved in 20 mL of acetone to obtain concentrated stock solutions. […] The concentrated stock solutions obtained were diluted with 20 mL of an aqueous mixture containing 2.5% Agri-dex crop oil concentrate (v/v). Applications were made by injecting an appropriate amount of the stock solution into the aqueous layer of the paddy. Control plants were treated in the same manner with the solvent blank. All treated plant material received the same concentration of acetone and crop oil concentrate. The treated plants and control plants were placed in a greenhouse as described above and water was added as needed to maintain a paddy flood. After approximately 3 weeks, the condition of the test plants, compared with that of the untreated plants, was determined visually and scored on a scale of 0 to 100 percent where 0 corresponds to no injury and 100 corresponds to complete kill. By applying the well-accepted probit analysis as described by J. Berkson in Journal of the […], 48, 565 (1953) and by D. Finney in “Probit Analysis” Cambridge University Press (1952) or by plotting the mean data and fitting a logarithmic curve to the portion of the data where there was a dose response using Microsoft Excel®, the above data can be used to calculate GR50 and GR90 values, which are defined as growth reduction factors that correspond to the effective dose of herbicide required to kill or control 50 percent or 90 percent, respectively, of a target plant.

[2] = test system: CYPDI = Cyperus difformis L. (small-flower flatsedge)
Protocol: as §1

[3] = test system: SCPJU = Scirpus juncoides ROXB. (Japanese bulrush)
Protocol: as §1

[4] = test system: ORYSA = Oryza sativa ‘Wells’ (rice)
Protocol: as §1

[5] = test system: ORYSA = Oryza sativa ‘M202’ (rice)
Protocol: as §1

[6] = test system: MOOVA = Monochoria vaginalis (BURM.f.) C.PRESL ex KUNTH (monochoria)
Protocol: as §1

[7] = Table 7, dose to kill or control 50 percent, 21 days after application
[8] = Table 7, dose to kill or control 90 percent, 21 days after application

Q: How did the “Mean Visual Injury (%)-21 Days After Application ECHCG” value ([1]; Table 7, 2.19 g ae/ha) turn out when COc1c(C(=O)OCc2ccccc2)nc(-c2ccc(Cl)c(OC)c2F)c(F)c1N [Compound 66, benzyl 4-amino-6-(4-chloro-2-fluoro-3-methoxyphenyl)-5-fluoro-3-methoxypicolinate] was run?
A: The value was 0%.

Q: And the “Mean Visual Injury (%)-21 Days After Application ECHCG” value ([1]; Table 7, 4.38 g ae/ha)?
A: The value was 3%.

Q: And the “Mean Visual Injury (%)-21 Days After Application ECHCG” value ([1]; Table 7, 8.75 g ae/ha)?
A: Its value is 6%.

Q: And the “Mean Visual Injury (%)-21 Days After Application ECHCG” value ([1]; Table 7, 17.5 g ae/ha)?
A: The value was 57%.

Q: What about the “Mean Visual Injury (%)-21 Days After Application ECHCG” value ([1]; Table 7, 35 g ae/ha) of the same compound?
A: The value was 86%.

Q: What about the “Mean Visual Injury (%)-21 Days After Application ECHCG” value ([1]; Table 7, 70 g ae/ha) of the same compound?
A: Its value is 99%.

Q: And the “Mean Visual Injury (%)-21 Days After Application ECHCG” value ([1]; Table 7, 140 g ae/ha)?
A: The value was 100%.

Q: And the “GR50 ECHCG” value [1, 7]?
A: Its value is 17.4 g ae/ha.

Q: And the “GR90 ECHCG” value [1, 8]?
A: Its value is 53.7 g ae/ha.

Q: And the “Mean Visual Injury (%)-21 Days After Application CYPDI” value ([2]; Table 7, 2.19 g ae/ha)?
A: Its value is 0%.

Q: What about the “Mean Visual Injury (%)-21 Days After Application CYPDI” value ([2]; Table 7, 4.38 g ae/ha) of the same compound?
A: Its value is 48%.

Q: And the “Mean Visual Injury (%)-21 Days After Application CYPDI” value ([2]; Table 7, 8.75 g ae/ha)?
A: The value was 94%.

Q: And the “Mean Visual Injury (%)-21 Days After Application CYPDI” value ([2]; Table 7, 17.5 g ae/ha)?
A: The value was 100%.

Q: And the “Mean Visual Injury (%)-21 Days After Application CYPDI” value ([2]; Table 7, 35 g ae/ha)?
A: Its value is 100%.

Q: And the “Mean Visual Injury (%)-21 Days After Application CYPDI” value ([2]; Table 7, 70 g ae/ha)?
A: Its value is 100%.

Q: What about the “Mean Visual Injury (%)-21 Days After Application CYPDI” value ([2]; Table 7, 140 g ae/ha) of the same compound?
A: Its value is 100%.

Q: What about the “GR50 CYPDI” value [2, 7] of the same compound?
A: The value was 4.5 g ae/ha.

Q: And the “GR90 CYPDI” value [2, 8]?
A: Its value is 8.2 g ae/ha.

Q: And the “Mean Visual Injury (%)-21 Days After Application SCPJU” value ([3]; Table 7, 2.19 g ae/ha)?
A: The value was 35%.

Q: What about the “Mean Visual Injury (%)-21 Days After Application SCPJU” value ([3]; Table 7, 4.38 g ae/ha) of the same compound?
A: Its value is 78%.

Q: And the “Mean Visual Injury (%)-21 Days After Application SCPJU” value ([3]; Table 7, 8.75 g ae/ha)?
A: The value was 94%.

Q: What about the “Mean Visual Injury (%)-21 Days After Application SCPJU” value ([3]; Table 7, 17.5 g ae/ha) of the same compound?
A: Its value is 98%.

Q: And the “Mean Visual Injury (%)-21 Days After Application SCPJU” value ([3]; Table 7, 35 g ae/ha)?
A: The value was 100%.

Q: And the “Mean Visual Injury (%)-21 Days After Application SCPJU” value ([3]; Table 7, 70 g ae/ha)?
A: Its value is 100%.

Q: What about the “Mean Visual Injury (%)-21 Days After Application SCPJU” value ([3]; Table 7, 140 g ae/ha) of the same compound?
A: Its value is 100%.

Q: And the “GR50 SCPJU” value [3, 7]?
A: Its value is 2.8 g ae/ha.

Q: And the “GR90 SCPJU” value [3, 8]?
A: Its value is 7.1 g ae/ha.

Q: And the “Mean Visual Injury (%)-21 Days After Application ORYSA ‘Wells’” value ([4]; Table 7, 8.75 g ae/ha)?
A: The value was 0%.

Q: What about the “Mean Visual Injury (%)-21 Days After Application ORYSA ‘Wells’” value ([4]; Table 7, 17.5 g ae/ha) of the same compound?
A: The value was 0%.

Q: And the “Mean Visual Injury (%)-21 Days After Application ORYSA ‘Wells’” value ([4]; Table 7, 35 g ae/ha)?
A: The value was 0%.

Q: What about the “Mean Visual Injury (%)-21 Days After Application ORYSA ‘Wells’” value ([4]; Table 7, 70 g ae/ha) of the same compound?
A: The value was 0%.

Q: And the “Mean Visual Injury (%)-21 Days After Application ORYSA ‘Wells’” value ([4]; Table 7, 140 g ae/ha)?
A: Its value is 5%.

Q: What about the “GR50 ORYSA ‘Wells’” value [4, 7] of the same compound?
A: The value was over 140 g ae/ha.

Q: What about the “GR90 ORYSA ‘Wells’” value [4, 8] of the same compound?
A: Its value is over 140 g ae/ha.

Q: What about the “Mean Visual Injury (%)-21 Days After Application ORYSA ‘M202’” value ([5]; Table 7, 2.19 g ae/ha) of the same compound?
A: Its value is 0%.

Q: What about the “Mean Visual Injury (%)-21 Days After Application ORYSA ‘M202’” value ([5]; Table 7, 4.38 g ae/ha) of the same compound?
A: The value was 0%.

Q: What about the “Mean Visual Injury (%)-21 Days After Application ORYSA ‘M202’” value ([5]; Table 7, 8.75 g ae/ha) of the same compound?
A: The value was 0%.

Q: What about the “Mean Visual Injury (%)-21 Days After Application ORYSA ‘M202’” value ([5]; Table 7, 17.5 g ae/ha) of the same compound?
A: Its value is 0%.

Q: And the “Mean Visual Injury (%)-21 Days After Application ORYSA ‘M202’” value ([5]; Table 7, 35 g ae/ha)?
A: Its value is 0%.

Q: What about the “Mean Visual Injury (%)-21 Days After Application ORYSA ‘M202’” value ([5]; Table 7, 70 g ae/ha) of the same compound?
A: The value was 0%.

Q: What about the “Mean Visual Injury (%)-21 Days After Application ORYSA ‘M202’” value ([5]; Table 7, 140 g ae/ha) of the same compound?
A: Its value is 17%.

Q: What about the “GR50 ORYSA ‘M202’” value [5, 7] of the same compound?
A: Its value is over 140 g ae/ha.

Q: And the “GR90 ORYSA ‘M202’” value [5, 8]?
A: Its value is over 140 g ae/ha.

Q: What about the “Mean Visual Injury (%)-21 Days After Application MOOVA” value ([6]; Table 7, 2.19 g ae/ha) of the same compound?
A: Its value is 0%.

Q: What about the “Mean Visual Injury (%)-21 Days After Application MOOVA” value ([6]; Table 7, 4.38 g ae/ha) of the same compound?
A: The value was 100%.

Q: What about the “Mean Visual Injury (%)-21 Days After Application MOOVA” value ([6]; Table 7, 8.75 g ae/ha) of the same compound?
A: Its value is 100%.

Q: And the “Mean Visual Injury (%)-21 Days After Application MOOVA” value ([6]; Table 7, 17.5 g ae/ha)?
A: The value was 100%.

Q: What about the “Mean Visual Injury (%)-21 Days After Application MOOVA” value ([6]; Table 7, 35 g ae/ha) of the same compound?
A: Its value is 100%.

Q: What about the “Mean Visual Injury (%)-21 Days After Application MOOVA” value ([6]; Table 7, 70 g ae/ha) of the same compound?
A: Its value is 100%.

Q: And the “Mean Visual Injury (%)-21 Days After Application MOOVA” value ([6]; Table 7, 140 g ae/ha)?
A: The value was 100%.

Q: And the “GR50 MOOVA” value [6, 7]?
A: The value was under 4.38 g ae/ha.

Q: And the “GR90 MOOVA” value [6, 8]?
A: Its value is under 4.38 g ae/ha.
